Results from patent US10669289B2, “Boronic acid derivatives” (MERCK PATENT GMBH, priority 2014, dated 2020).
pIC50: −log10 of the molar value.

Assays:
[1] = target: human immuno proteasome (LMP7) (Homo sapiens (Human), UniProt P28062); assay: Determination of LMP7 activity (fluorescence intensity assay, Suc-LLVY-AMC); type: biochemical
Experimental: Determination of LMP7 Activity:
Measurement of LMP7 inhibition is performed in 384 well format based on fluorescence intensity assay.
(§1) Purified human immuno proteasome (0.25 nM) and serial diluted compounds in DMSO (range of concentrations from 30 μM to 15 pM) or controls are incubated for 20 minutes or 120 minutes (long incubation) at 25° C. in assay buffer containing 50 mM Tris pH 7.4, 0.03% SDS, 1 mM EDTA and 1% DMSO. The reaction is initiated by the addition of the fluorogenic peptide substrate, Suc-LLVY-AMC (Bachem 1-1395), at a concentration of 40 μM. After 60 minutes of incubation at 37° C., fluorescence intensity is measured at λex=350 nm and λem=450 nm with a fluorescence reader (Perkin Elmer Envision reader or equivalent).
(§2) Unless indicated otherwise the results are obtained after incubation for 20 minutes.

[2] = target: human constitutive proteasome (Beta5) (Homo sapiens (Human), UniProt P28074); assay: Determination of Beta5 activity (fluorescence intensity assay, Suc-LLVY-AMC); type: biochemical
Experimental: Determination of Beta5 Activity:
Measurement of Beta5 inhibition is performed in 384 well format based on fluorescence intensity assay.
as §1, with “constitutive” for “immuno”, “(1.25” for “(0.25”
as §2

[3] = LMP7 versus Beta5, incubation for 20 minutes
[4] = LMP7 versus Beta5, long incubation (120 min)

Row | Selectivity LMP7 vs Beta5 [1, 3] | pIC50 ([1]; incubation for 20 minutes) | pIC50 ([2]; incubation for 20 minutes) | Selectivity LMP7 vs Beta5 [1, 4] | pIC50 ([1]; long incubation (120 min)) | pIC50 ([2]; long incubation (120 min)) | Compound
1 | ++ (50 ≤ Selectivity < 70) | 5.30 to 6.30 | < 5.30 |  |  |  | C=CC(=O)N(c1ccccc1)[C@@H](C)C(=O)N[C@@H](Cc1ccc(C)c(C)c1)B(O)O [Compound No. 48, [(1R)-2-(3,4-dimethylphenyl)-1-[[(2S)-2-(N-prop-2-enoylanilino)propanoyl]amino]ethyl]boronic Acid]
2 |  |  |  | +++++ (Selectivity ≥ 150) | > 7.30 | < 5.30 | C=CC(=O)N(CC#N)CC(=O)N[C@@H](Cc1ccc(C)c(C)c1)B(O)O [Compound No. 63, [(1R)-1-[[2-[cyanomethyl(prop-2-enoyl)amino]acetyl]amino]-2-(3,4-dimethylphenyl)ethyl]boronic Acid]
3 |  |  |  | +++++ (Selectivity ≥ 150) | > 7.30 | 6.30 to 7.30 | C=CC(=O)N(CC(=O)N[C@@H](Cc1coc2ccccc12)B(O)O)c1ccccc1F [Compound No. 86, [(1R)-2-(benzofuran-3-yl)-1-[[2-(2-fluoro-N-prop-2-enoyl-anilino)acetyl]amino]ethyl]boronic Acid]
4 |  |  |  | +++++ (Selectivity ≥ 150) | > 7.30 | < 5.30 | C=CC(=O)N(CC(=O)N[C@@H](Cc1cccc(F)c1)B(O)O)c1ccccc1F [Compound No. 98, [(1R)-2-(3-fluorophenyl)-1-[[2-(2-fluoro-N-prop-2-enoyl-anilino)acetyl]amino]ethyl]boronic Acid]
5 | +++ (70 ≤ 100) | > 7.30 | 5.30 to 6.30 |  |  |  | C=CC(=O)N1c2ccccc2CC1C(=O)N[C@@H](Cc1ccc(C)cc1C)B(O)O (stereo partly drawn) [Compound No. 8, [(1R)-2-(2,4-dimethylphenyl)-1-[(1-prop-2-enoylindoline-2-carbonyl)amino]ethyl]boronic Acid]
6 |  |  |  | +++++ (Selectivity ≥ 150) | > 7.30 | < 5.30 | C=CC(=O)N(CC#N)CC(=O)N[C@@H](Cc1ccc(C)cc1C)B(O)O [Compound No. 56, [(1R)-1-[[2-[cyanomethyl(prop-2-enoyl)amino]acetyl]-amino]-2-(2,4-dimethylphenyl)ethyl]boronic Acid]
7 |  |  |  | +++++ (Selectivity ≥ 150) | 6.30 to 7.30 | < 5.30 | C=CC(=O)N(CC(=O)N[C@@H](Cc1ccc(C)c(C)c1)B(O)O)CC(F)F [Compound No. 83, [(1R)-1-[[2-[2,2-difluoroethyl(prop-2-enoyl)amino]acetyl]-amino]-2-(3,4-dimethylphenyl)ethyl]boronic Acid]
8 |  |  |  | +++++ (Selectivity ≥ 150) | 6.30 to 7.30 | < 5.30 | C=CC(=O)N(CC)CC(=O)N[C@@H](Cc1ccc(C(F)(F)F)cc1C)B(O)O [Compound No. 64, [(1R)-1-[[2-[ethyl(prop-2-enoyl)amino]acetyl]amino]-2-[2-methyl-4-(trifluoromethyl)phenyl]ethyl]boronic Acid]
9 |  |  |  | +++++ (Selectivity ≥ 150) | 6.30 to 7.30 | < 5.30 | C=CC(=O)N(C)[C@@H](C)C(=O)N[C@@H](Cc1ccc(C)c(C)c1)B(O)O [Compound No. 68, [(1R)-2-(3,4-dimethylphenyl)-1-[[(2S)-2-[methyl(prop-2-enoyl)amino]propanoyl]amino]ethyl]boronic Acid]
10 | ++ (50 ≤ Selectivity < 70) | 6.30 to 7.30 | < 5.30 |  |  |  | C/C=C(\C)C(=O)N(CC)CC(=O)N[C@@H](Cc1ccc(C)cc1C)B(O)O [Compound No. 22, [(1R)-2-(2,4-dimethylphenyl)-1-[[2-[ethyl-[(E)-2-methylbut-2-enoyl]-amino]acetyl]amino]ethyl]boronic Acid]
11 | +++ (70 ≤ 100) | 6.30 to 7.30 | < 5.30 |  |  |  | [(1R)-1-[[2-[but-2-ynoyl(propyl)amino]acetyl]amino]-2-(2,4-dimethylphenyl)ethyl]boronic Acid [Compound No. 3]
12 |  |  |  | +++++ (Selectivity ≥ 150) | 6.30 to 7.30 | < 5.30 | C=CC(=O)N(CC(=O)N[C@@H](Cc1ccsc1)B(O)O)c1ccccc1Cl [Compound No. 89, [(1R)-1-[[2-(2-chloro-N-prop-2-enoyl-anilino)acetyl]amino]-2-(3-thienyl)ethyl]boronic Acid]
13 |  |  |  | +++++ (Selectivity ≥ 150) | 6.30 to 7.30 | < 5.30 | C=CC(=O)N(C)CC(=O)N[C@@H](Cc1ccsc1)B(O)O [Compound No. 75, [(1R)-1-[[2-[methyl(prop-2-enoyl)amino]acetyl]amino]-2-(3-thienyl)ethyl]boronic Acid]
14 | +++ (70 ≤ 100) | > 7.30 | 5.30 to 6.30 |  |  |  | CC#CC(=O)N(CC)CC(=O)N[C@@H](Cc1ccc(C)cc1C)B(O)O [Compound No. 19, [(1R)-1-[[2-[but-2-ynoyl(ethyl)amino]acetyl]amino]-2-(2,4-dimethylphenyl)ethyl]boronic Acid]
15 |  |  |  | ++++ (100 ≤ Selectivity < 150) | 6.30 to 7.30 | < 5.30 | C=CC(=O)N(C)[C@@H](C)C(=O)N[C@@H](Cc1ccc(C)cc1C)B(O)O [Compound No. 49, [(1R)-2-(2,4-dimethylphenyl)-1-[[(2S)-2-[methyl(prop-2-enoyl)amino]propanoyl]amino]ethyl]boronic Acid]
16 |  |  |  | +++++ (Selectivity ≥ 150) | > 7.30 | < 5.30 | C=CC(=O)N(CC(=O)N[C@@H](Cc1ccsc1)B(O)O)c1ccc(Cl)c(Cl)c1 [Compound No. 97, [(1R)-1-[[2-(3,4-dichloro-N-prop-2-enoyl-anilino)acetyl]amino]-2-(3-thienyl)ethyl]boronic Acid]
17 |  |  |  | ++++ (100 ≤ Selectivity < 150) | 6.30 to 7.30 | < 5.30 | C=CC(=O)N1CCCC[C@@H]1C(=O)N[C@@H](Cc1ccc(Cl)cc1Cl)B(O)O [Compound No. 51, [(1R)-2-(2,4-dichlorophenyl)-1-[[(2R)-1-prop-2-enoylpiperidine-2-carbonyl]amino]ethyl]boronic Acid]
18 |  |  |  | +++++ (Selectivity ≥ 150) | > 7.30 | < 5.30 | C=CC(=O)N(CC)CC(=O)N[C@@H](Cc1ccc(Cl)c(Cl)c1)B(O)O [Compound No. 65, [(1R)-2-(3,4-dichlorophenyl)-1-[[2-[ethyl(prop-2-enoyl)amino]acetyl]amino]ethyl]boronic Acid]
19 |  |  |  | +++++ (Selectivity ≥ 150) | 6.30 to 7.30 | < 5.30 | C=CC(=O)N(CC(=O)NC(Cc1ccsc1)B(O)O)c1ccccc1CC (stereo not drawn) [Compound No. 93, [1-[[2-(2-ethyl-N-prop-2-enoyl-anilino)acetyl]amino]-2-(3-thienyl)ethyl]boronic Acid]
20 | +++++ (Selectivity ≥ 150) | > 7.30 | < 5.30 |  |  |  | C=CC(=O)N(CC(=O)N[C@@H](Cc1ccc(C)cc1C)B(O)O)c1ccccc1F [Compound No. 1, [(1R)-2-(2,4-dimethylphenyl)-1-[[2-(2-fluoro-N-prop-2-enoyl-anilino)acetyl]amino]ethyl]boronic Acid]
21 |  |  |  | +++++ (Selectivity ≥ 150) | 6.30 to 7.30 | < 5.30 | C=CC(=O)N(CC)CC(=O)N[C@@H](Cc1ccc(C)c(C)c1C)B(O)O [Compound No. 72, [(1R)-1-[[2-[ethyl(prop-2-enoyl)amino]acetyl]amino]-2-(2,3,4-trimethylphenyl)ethyl]boronic Acid]
